Several values for one entry are separate records, joined by “and”; a condition that tells them apart may be missing. Equal entries are not always repeated. ± gives the expanded uncertainty stated by the source.
Details: 313.15 K; Liquid

| Compound | vapor or sublimation pressure |
| --- | --- |
| c1ccccc1 [benzene] | 24.39 ± 0.18 kPa and 24.38 ± 0.18 kPa and 24.4 ± 0.18 kPa |
| CCC(C)O (stereo not drawn) [butan-2-ol] | 6.062 ± 0.069 kPa [middle of 4 runs] |
| CC(C)OC(C)C [diisopropyl ether] | 37.1 ± 0.27 kPa and 37.14 ± 0.27 kPa and 37.12 ± 0.27 kPa |
